From article PMC9050848, “Carbamoyl-N-aryl-imine-urea: a new framework to obtain a putative leishmanicidal drug-candidate” (RSC Advances, 2020)

Legend:
L. amazonensis = assay: Murine model of cutaneous leishmaniasis induced by L. amazonensis (efficacy); format: in vivo, BALB/c mice; conditions: 30 μmol per kg per day × 28 days
Procedure: So, BALB/c mice infected with L. amazonensis were treated during 28 days with compound 10e (30 μmol per kg per day, i.p.) or with the standards miltefosine (30 μmol per kg per day, p.o.) and meglumine antimoniate (30 μmol per kg per day, i.p.).
(§1) This study (protocol number 2013.02) was approved by the Ethics Committee for Animal Experimentation of the Federal University of Alagoas (Brazil). All animals received humane care in compliance with the ‘Principles of laboratory animal care’ formulated by the National Society for Medical Research and the ‘Guide for the care and use of laboratory animals’ prepared by the National Academy of Sciences (Washington, DC). Then, 1 × 10^5 stationary promastigotes (5 days of culture in Schneider's medium) of L. amazonensis were inoculated subcutaneously into the right ear dermis of 6 week-old female BALB/c mice weighing ca. 20 g. and later treated with 10e (i.p.), miltefosine (p.o.) or meglumine antimoniate (i.p.) at 30 μmol kg^−1 × 28 days. The vehicle to solubilize 10e (LASSBio-1736) and standard drugs was Tween 20 (50 μL) and sterile water for injection, which was also administrated by i.p. route in two controls groups (non-infected control and infected control). The lesion size was measured using a paquimeter.[32] The parasite loads of infected ears and draining lymph nodes were determined using a quantitative limiting-dilution assay.[33] Toxicity was also evaluated due to alterations on spleen weight and by biochemistry dosages in plasma, performed according to the manufacturer's instructions (Doles, BRA). Data obtained from experiments were expressed as the mean ± S.E.M. and statistical differences between the treated and the vehicle groups of experiments were evaluated by ANOVA and Dunnett hoc tests.

[1] = Toxicity in treated infected mice (survival, spleen weight, serum biochemistry); format: in vivo; conditions: 30 μmol per kg per day × 28 days
Procedure: The survival of BALB/c mice infected with L. amazonensis untreated and treated during 28 days with the daily dose of 30 μmol kg^−1 with meglumine antimoniate, miltefosine and 10e (LASSBio-1736) was analyzed. Animal mortality was not observed for the groups treated with 10e and miltefosine, while 20% of death was identified from the 25th day of treatment with meglumine antimoniate (Fig. 11). After the end of treatment, the animal's toxicity was investigated looking for any alterations on spleen weight and on alanine aminotransferase (ALT), aspartate aminotransferase (AST), creatinine (CREA) and urea serum levels.
as §1

[2] = tested on: L. braziliensis intracellular amastigotes; assay: Leishmanicidal activity against intracellular amastigote forms of L. braziliensis in J774.A1 macrophages; format: cell-based; conditions: Leishmania braziliensis
Excerpt: Further, the leishmanicidal activity against intracellular amastigotes forms of L. braziliensis were also investigated (Table 2).
Promastigotes of L. amazonensis (MHOM/BR/77/LTB0016) were obtained from Dr Eduardo Caio Torres dos Santos at Oswaldo Cruz Institute – Fiocruz. Promastigotes of L. braziliensis (MHOM/BR/01/BA788) were obtained from Dr Valéria de Matos Borges at Gonçalo Moniz Research Center – Fiocruz. The parasites were maintained in vitro in Schneider's medium, supplemented with 10% FBS and 2% human urine at 27 °C in BOD incubator.
Initially, compounds 9a–e and 10a–e were evaluated at screening concentration of 30 μM against L. amazonensis, using DMSO 0.03% as vehicle control, since this was the DMSO concentration (vehicle) remaining in each well with the tested compounds. […] Vehicle control used was DMSO 0.1%, since this was the concentration of DMSO (vehicle) existing in each well with the tested substances in the highest concentration used.
To assess the activity of the test derivatives against the amastigote stage of L. amazonensis and L. braziliensis the model of infection in coverglass was realized.[31] The murine macrophages (J774.A1 cell line) were prepared in 24-well cell culture plate (flat bottom, clear, Corning) at 2 × 10^5 adherent cells per well, infected with 2 × 10^6 promastigotes in glass coverslips placed inside 1 mL medium culture. The cultures were cultured or not with the test derivatives or reference drugs, and kept for 24 h at 37 °C, 5% CO2. After 24 h of incubation, the coverslips were washed, stained with Giemsa–May–Grünwald, and intracellular amastigotes were counted in 100 macrophages, using an optical microscope, on the objective of 100×. Thus, during the counting of 100 macrophages, the amount of amastigotes present within these defence cells was also determined. Data obtained from in vitro experiments were expressed as the mean ± S.E.M. of duplicate cultures of representative assays. Statistical differences between the treated and the control groups were evaluated by ANOVA and Dunnett hoc tests. Differences with a p value < 0.05 or lower were considered significant.

O=C(N/N=C/c1ccc(C(F)(F)F)cc1)NNC(=O)c1ccc(Cl)cc1Cl [LASSBio-1736 (10e), 2,4-dichloro-phenylcarbamoyl-N-4-trifluoromethylphenylimine-urea]
Appearance of lesions on the first day after end of treatment (photographs) (L. amazonensis): complete healing of the nodules and ulcers
Lesion sizes of infected ear (L. amazonensis; 10e and meglumine antimoniate i.p., miltefosine p.o.): reduced the lesion sizes of infected ear like miltefosine
L. amazonensis titer in draining lymph node (L. amazonensis; limiting-dilution assay): not reduced the L. amazonensis titer in draining lymph node
Parasite load in infected ear (L. amazonensis; limiting-dilution assay): decreased parasite load in infected ear
Serum levels of ALT, AST, creatinine and urea ([1]; after end of treatment, i.p.): did not significantly interfere
Spleen weight ([1]; last day of treatment): did not alter animal's spleen weight
IC50 ([2]; J774.A1, 24 h, read-out: IC50 (concentration required to give 50% death of parasites)): 5.3 ± 2.6 µM
Emax ([2]; J774.A1, L. braziliensis intracellular amastigotes, maximum toxicity vs 0.1% DMSO group, read-out: Maximum effect (% ± S.E.M.)): 57.2 ± 5.2%
